Six molecules from ChEMBL document CHEMBL3046004, “Esterase-mediated resistance to pyrethroids in field populations of Helicoverpa armigera (Lepidoptera: Noctuidae) from Central Africa” (2009) can be followed below.

Holding throughout (assay type): functional
Experiment [1] concerns Helicoverpa armigera. Put plainly: Resistance factor, ratio of LD50 for fourth-instar larval stage of pyrethroid-resistance Helicoverpa armigera laboratory strain GS-RR06 to LD50 for fourth-instar larval stage of pyrethroid-susceptible Helicoverpa armigera laboratory strain BK-77.
The test system of experiment [2] is Helicoverpa armigera. In words: Resistance factor, ratio of LD50 for fourth-instar larval stage of Helicoverpa armigera field strain Ngong to LD50 for fourth-instar larval stage of pyrethroid-susceptible Helicoverpa armigera laboratory strain BK-77.
In experiment [3] the test system is Helicoverpa armigera. Put plainly: Resistance factor, ratio of LD50 for fourth-instar larval stage of Helicoverpa armigera field strain Pitoa isolated from maize plant to LD50 for fourth-instar larval stage of pyrethroid-susceptible Helicoverpa armigera laboratory strain BK-77.
The test system of experiment [4] is Helicoverpa armigera. In words: Insecticidal activity against fourth-instar larval stage of Helicoverpa armigera field strain Ngong isolated from cotton plant assessed as mortality applied topically onto thorax measured after 48 hr.
In experiment [5] the test system is Helicoverpa armigera. In words: Insecticidal activity against fourth-instar larval stage of Helicoverpa armigera field strain Pitoa isolated from maize plant assessed as mortality applied topically onto thorax measured after 48 hr.
In experiment [6] the test system is Helicoverpa armigera. In words: Insecticidal activity against fourth-instar larval stage of Helicoverpa armigera field strain Gaschiga isolated from tomato plant assessed as mortality applied topically onto thorax measured after 48 hr.
The subject of experiment [7] is Helicoverpa armigera. Put plainly: Insecticidal activity against fourth-instar larval stage of pyrethroid-susceptible Helicoverpa armigera laboratory strain BK-77 assessed as mortality applied topically onto thorax measured after 48 hr.
For experiment [8], the system named is Helicoverpa armigera. Put plainly: Resistance factor, ratio of LD50 for fourth-instar larval stage of Helicoverpa armigera field strain Pitoa isolated from tomato plant to LD50 for fourth-instar larval stage of pyrethroid-susceptible Helicoverpa armigera laboratory strain BK-77.
Experiment [9] deals with Helicoverpa armigera. Put plainly: Insecticidal activity against fourth-instar larval stage of Helicoverpa armigera field strain Pitoa isolated from tomato plant assessed as mortality applied topically onto thorax measured after 48 hr.
Experiment [10] has as its system Helicoverpa armigera. Put plainly: Insecticidal activity against fourth-instar larval stage of pyrethroid-resistance Helicoverpa armigera laboratory strain GS-RR06 assessed as mortality applied topically onto thorax measured after 48 hr.
Experiment [11] has as its system Helicoverpa armigera. In words: Resistance factor, ratio of LD50 for fourth-instar larval stage of Helicoverpa armigera field strain Gaschiga isolated from tomato plant to LD50 for fourth-instar larval stage of pyrethroid-susceptible Helicoverpa armigera laboratory strain BK-77.
Experiment [12] deals with Helicoverpa armigera. Put plainly: Resistance factor, ratio of LD50 for fourth-instar larval stage of Helicoverpa armigera field strain Tchollire to LD50 for fourth-instar larval stage of pyrethroid-susceptible Helicoverpa armigera laboratory strain BK-77.
The subject of experiment [13] is Helicoverpa armigera. Put plainly: Insecticidal activity against fourth-instar larval stage of Helicoverpa armigera field strain Tchollire isolated from cotton plant assessed as mortality applied topically onto thorax measured after 48 hr.

The structures appear in SMILES notation.

For the molecule `CCOc1ccc(C(C)(C)COCc2cccc(Oc3ccccc3)c2)cc1` [ETOFENPROX], the Ratio in the experiment with Helicoverpa armigera [1] is given as 2; in the experiment on Helicoverpa armigera [2], 2; in the experiment on Helicoverpa armigera [3], 5; with Helicoverpa armigera [8], 10; with Helicoverpa armigera [11] it was 4; in the experiment on Helicoverpa armigera [12], 3. Further, the LD50 in the experiment on Helicoverpa armigera [4] is recorded as 136.6 microgAi/g; with Helicoverpa armigera [5], 285.3 microgAi/g; in the experiment on Helicoverpa armigera [6], 229.3 microgAi/g; with Helicoverpa armigera [7], 55.5 microgAi/g; with Helicoverpa armigera [9] it was 531.4 microgAi/g; in the experiment on Helicoverpa armigera [10], 135.7 microgAi/g. Moreover, in the experiment on Helicoverpa armigera [13], the LD50 is 152.2 microgAi/g.
Regarding `CC1(C)[C@H](C(=O)O[C@H](C#N)c2cccc(Oc3ccccc3)c2)[C@@H]1C=C(Br)Br` [DELTAMETHRIN], the Ratio came out at 2972 with Helicoverpa armigera [1]; 134 with Helicoverpa armigera [2]; 590 in the experiment with Helicoverpa armigera [3]; 756 in the experiment on Helicoverpa armigera [8]; 316 in the experiment with Helicoverpa armigera [11]; 60 in the experiment with Helicoverpa armigera [12]. In addition, the LD50 in the experiment on Helicoverpa armigera [4] is given as 6.7 microgAi/g; in the experiment with Helicoverpa armigera [5] it was 29.5 microgAi/g; in the experiment on Helicoverpa armigera [6], 15.8 microgAi/g; in the experiment on Helicoverpa armigera [7], 0.05 microgAi/g; with Helicoverpa armigera [9] it was 37.8 microgAi/g; in the experiment on Helicoverpa armigera [10], 148.6 microgAi/g. In the experiment with Helicoverpa armigera [13], the LD50 is on record as 3 microgAi/g.
Turning to `COC(=O)N(C(=O)N1CO[C@@]2(C(=O)OC)Cc3cc(Cl)ccc3C2=N1)c1ccc(OC(F)(F)F)cc1` [INDOXACARB], the Ratio is listed as 1 in the experiment on Helicoverpa armigera [1]; 1.4 with Helicoverpa armigera [2]; 1.1 in the experiment with Helicoverpa armigera [3]; 2 in the experiment on Helicoverpa armigera [8]; 0.4 in the experiment on Helicoverpa armigera [11]. Besides, the LD50 in the experiment with Helicoverpa armigera [4] was 0.9 microgAi/g; in the experiment with Helicoverpa armigera [5], 0.7 microgAi/g; with Helicoverpa armigera [6], 0.3 microgAi/g; in the experiment on Helicoverpa armigera [7] it was 0.7 microgAi/g; in the experiment with Helicoverpa armigera [9], 1.3 microgAi/g; with Helicoverpa armigera [10], 0.7 microgAi/g.
In the case of `Clc1ccc(C(c2ccc(Cl)cc2)C(Cl)(Cl)Cl)cc1` [CHLOROPHENOTHANE], the Ratio in the experiment with Helicoverpa armigera [1] was found to be 1; in the experiment on Helicoverpa armigera [2], 1.4; in the experiment with Helicoverpa armigera [3] it was 1.9; with Helicoverpa armigera [8], 1.3; in the experiment on Helicoverpa armigera [11] it was 1.4; with Helicoverpa armigera [12] it was 1. The LD50 in the experiment on Helicoverpa armigera [4] came out at 36.8 microgAi/g; in the experiment with Helicoverpa armigera [5], 48.9 microgAi/g; with Helicoverpa armigera [6], 37.4 microgAi/g; in the experiment with Helicoverpa armigera [7] it was 24.3 microgAi/g; in the experiment with Helicoverpa armigera [9] it was 34.8 microgAi/g; with Helicoverpa armigera [10], 26.1 microgAi/g. The LD50 with Helicoverpa armigera [13] is on record as 26.7 microgAi/g.
In the case of `CCCSP(=O)(OCC)Oc1ccc(Br)cc1Cl` (configuration not stated) [PROFENOFOS], the Ratio with Helicoverpa armigera [1] is reported as 3.9; in the experiment with Helicoverpa armigera [2], 4; in the experiment with Helicoverpa armigera [3] it was 4.2; with Helicoverpa armigera [8], 7.9; in the experiment on Helicoverpa armigera [11] it was 5.3. The LD50 with Helicoverpa armigera [4] stood at 18.5 microgAi/g; in the experiment with Helicoverpa armigera [5], 19.5 microgAi/g; with Helicoverpa armigera [6] it was 24.3 microgAi/g; with Helicoverpa armigera [7] it was 4.6 microgAi/g; with Helicoverpa armigera [9], 36.2 microgAi/g; in the experiment on Helicoverpa armigera [10] it was 17.7 microgAi/g.
Regarding `O=S1OCC2C(CO1)C1(Cl)C(Cl)=C(Cl)C2(Cl)C1(Cl)Cl` (configuration not stated) [ENDOSULFAN], the Ratio with Helicoverpa armigera [1] was 0.7; with Helicoverpa armigera [2], 0.1; in the experiment with Helicoverpa armigera [3], 1; in the experiment on Helicoverpa armigera [8], 1; with Helicoverpa armigera [11], 0.7. The LD50 was 34 microgAi/g in the experiment on Helicoverpa armigera [4]; 37.9 microgAi/g in the experiment with Helicoverpa armigera [5]; 25.9 microgAi/g in the experiment with Helicoverpa armigera [6]; 37.6 microgAi/g with Helicoverpa armigera [7]; 36.2 microgAi/g in the experiment with Helicoverpa armigera [9]; 27.5 microgAi/g in the experiment on Helicoverpa armigera [10].
